# Measurements reported in ChEMBL document CHEMBL2390858, “Design, synthesis and anti-tuberculosis activity of 1-adamantyl-3-heteroaryl ureas with improved in vitro pharmacokinetic properties” (Bioorg Med Chem, 2013).
# How the values were obtained:
# [1] = physchem; conditions: system solution buffer, pH 7.4
# [2] = in vitro; conditions: human, plasma
# [3] = molecular target: T1, Bifunctional epoxide hydrolase 2 (Homo sapiens, UniProt P34913)
# T1 sequence (P34913 whole entry): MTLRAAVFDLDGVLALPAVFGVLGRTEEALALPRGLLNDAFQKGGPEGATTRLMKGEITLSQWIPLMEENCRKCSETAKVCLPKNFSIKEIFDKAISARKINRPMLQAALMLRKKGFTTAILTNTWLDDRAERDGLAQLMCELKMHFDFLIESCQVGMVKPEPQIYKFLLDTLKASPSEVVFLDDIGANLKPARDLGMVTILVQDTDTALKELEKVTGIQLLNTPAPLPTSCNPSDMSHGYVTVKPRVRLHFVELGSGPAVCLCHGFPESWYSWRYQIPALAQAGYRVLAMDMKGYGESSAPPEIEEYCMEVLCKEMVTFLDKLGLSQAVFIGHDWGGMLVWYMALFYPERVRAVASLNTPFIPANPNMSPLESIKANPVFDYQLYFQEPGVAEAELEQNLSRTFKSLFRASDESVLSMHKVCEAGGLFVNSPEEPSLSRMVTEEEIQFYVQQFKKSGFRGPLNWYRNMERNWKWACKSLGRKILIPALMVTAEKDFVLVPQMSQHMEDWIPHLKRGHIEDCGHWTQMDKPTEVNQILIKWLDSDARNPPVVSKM
# [4] = tested on: Plasma; conditions: human, 4 h, 10 µM
# [5] = buffer
# [6] = tested on: Vero; assay: cells; conditions: Chlorocebus sabaeus, 72 h
# [7] = tested on: Pseudomonas aeruginosa; assay: microbe, parasite or virus in culture
# [8] = tested on: Proteus vulgaris; assay: microbe, parasite or virus in culture
# [9] = tested on: Proteus mirabilis; assay: microbe, parasite or virus in culture
# [10] = tested on: Klebsiella pneumoniae; assay: microbe, parasite or virus in culture
# [11] = tested on: Escherichia coli; assay: microbe, parasite or virus in culture; conditions: K-12
# [12] = tested on: Burkholderia cepacia; assay: microbe, parasite or virus in culture
# [13] = tested on: Bacillus subtilis; assay: microbe, parasite or virus in culture
# [14] = tested on: Acinetobacter; assay: microbe, parasite or virus in culture
# [15] = tested on: Streptococcus pneumoniae; assay: microbe, parasite or virus in culture
# [16] = tested on: Streptococcus pyogenes; assay: microbe, parasite or virus in culture
# [17] = tested on: Staphylococcus aureus; assay: microbe, parasite or virus in culture; conditions: NRS70
# [18] = tested on: Staphylococcus aureus; assay: microbe, parasite or virus in culture; conditions: ATCC 29213
# [19] = tested on: Enterococcus faecalis; assay: microbe, parasite or virus in culture
# [20] = tested on: Bacillus anthracis; assay: microbe, parasite or virus in culture; conditions: Sterne
# [21] = tested on: Mycobacterium tuberculosis; assay: microbe, parasite or virus in culture; conditions: H37Rv, 168 h
# [22] = Metabolic stability in CD-1 mouse liver microsomes assessed as compound remaining after 90 mins in presence of NADPH; type: ADME, Microsome; conditions: read-out: Stability
Compound,IC50 [3],IC50 [6],MIC [7],MIC [8],MIC [9],MIC [10],MIC [11],MIC [12],MIC [13],MIC [14],MIC [15],MIC [16],MIC [17],MIC [18],MIC [19],MIC [20],MIC [21],also measured
O=C(Nc1ccc(F)c(F)c1F)NC12CC3CC(CC(C3)C1)C2,–,–,–,–,–,–,–,–,–,–,–,–,–,–,–,–,–,solubility at 18 h [1]: < 0.1 µg/mL
CC1C(NC(=O)Nc2ccc(F)c(F)c2F)CC2CC1C2(C)C (stereo not drawn),–,–,–,–,–,–,–,–,–,–,–,–,–,–,–,–,–,"fraction unbound at 4 h, 10 µM [2]: 0.008; solubility at 18 h [1]: < 0.1 µg/mL"
N#Cc1ccc(NC(=O)NC2C3CC4CC(C3)CC2C4)cc1 (stereo not drawn),–,–,–,–,–,–,–,–,–,–,–,–,–,–,–,–,–,"fraction unbound at 4 h, 10 µM [2]: 0.01; solubility at 18 h [1]: < 0.1 µg/mL"
Cc1ccc(NC(=O)NC2CCCCCC2)cc1Cl,–,–,–,–,–,–,–,–,–,–,–,–,–,–,–,–,–,"fraction unbound at 4 h, 10 µM [2]: 0.003; solubility at 18 h [1]: < 0.1 µg/mL"
CCCn1nc(NC(=O)NC2C3CC4CC(C3)CC2C4)cc1C (stereo not drawn),936 nM,83 µg/mL,> 200 µg/mL,> 200 µg/mL,> 200 µg/mL,> 200 µg/mL,> 200 µg/mL,> 200 µg/mL,> 200 µg/mL,> 200 µg/mL,> 200 µg/mL,> 200 µg/mL,> 200 µg/mL,> 200 µg/mL,> 200 µg/mL,> 200 µg/mL,1.56 µg/mL,"PPB [4]: 98.9%; solubility ([5]; 18 h, pH 7.4): 2 µg/mL"
O=C(Nc1nccs1)NC12CC3CC(CC(C3)C1)C2,83 nM,22 µg/mL,> 200 µg/mL,> 200 µg/mL,> 200 µg/mL,> 200 µg/mL,> 200 µg/mL,> 200 µg/mL,> 200 µg/mL,> 200 µg/mL,100 µg/mL,> 200 µg/mL,> 200 µg/mL,> 200 µg/mL,> 200 µg/mL,> 200 µg/mL,3.13 µg/mL,–
Cc1csc(NC(=O)NC23CC4CC(CC(C4)C2)C3)n1,485 nM,13 µg/mL,> 200 µg/mL,> 200 µg/mL,> 200 µg/mL,> 200 µg/mL,> 200 µg/mL,> 200 µg/mL,> 200 µg/mL,> 200 µg/mL,25 µg/mL,> 200 µg/mL,100 µg/mL,50 µg/mL,> 200 µg/mL,> 200 µg/mL,1.56 µg/mL,–
Cc1cnc(NC(=O)NC23CC4CC(CC(C4)C2)C3)s1,116 nM,23 µg/mL,> 200 µg/mL,> 200 µg/mL,> 200 µg/mL,> 200 µg/mL,> 200 µg/mL,> 200 µg/mL,> 200 µg/mL,> 200 µg/mL,> 200 µg/mL,> 200 µg/mL,200 µg/mL,> 200 µg/mL,200 µg/mL,> 200 µg/mL,3.13 µg/mL,–
CC(C)c1nnc(NC(=O)NC23CC4CC(CC(C4)C2)C3)o1,557 nM,11 µg/mL,> 200 µg/mL,> 200 µg/mL,> 200 µg/mL,> 200 µg/mL,> 200 µg/mL,> 200 µg/mL,> 200 µg/mL,> 200 µg/mL,> 200 µg/mL,> 200 µg/mL,> 200 µg/mL,> 200 µg/mL,> 200 µg/mL,> 200 µg/mL,1.56 µg/mL,"PPB [4]: 99.3%; solubility ([5]; 18 h, pH 7.4): 9.54 µg/mL"
Cc1cc(NC(=O)NC2C3CC4CC(C3)CC2C4)no1 (stereo not drawn),5 nM,> 48 µg/mL,> 200 µg/mL,> 200 µg/mL,> 200 µg/mL,> 200 µg/mL,> 200 µg/mL,> 200 µg/mL,> 200 µg/mL,> 200 µg/mL,> 200 µg/mL,> 200 µg/mL,> 200 µg/mL,> 200 µg/mL,> 200 µg/mL,> 200 µg/mL,6.25 µg/mL,"solubility ([5]; 18 h, pH 7.4): 25.5 µg/mL"
CC(C)c1nnc(NC(=O)NC2C3CC4CC(C3)CC2C4)o1 (stereo not drawn),843 nM,33 µg/mL,> 200 µg/mL,> 200 µg/mL,> 200 µg/mL,> 200 µg/mL,> 200 µg/mL,> 200 µg/mL,100 µg/mL,> 200 µg/mL,100 µg/mL,200 µg/mL,> 200 µg/mL,> 200 µg/mL,100 µg/mL,100 µg/mL,1.56 µg/mL,remaining at […] [22]: > 30%; PPB [4]: 98%
O=C(Nc1nnc(C2CCC2)o1)NC1C2CC3CC(C2)CC1C3 (stereo not drawn),382 nM,36 µg/mL,> 200 µg/mL,> 200 µg/mL,> 200 µg/mL,> 200 µg/mL,> 200 µg/mL,50 µg/mL,50 µg/mL,> 200 µg/mL,100 µg/mL,100 µg/mL,> 200 µg/mL,> 200 µg/mL,> 200 µg/mL,25 µg/mL,0.78 µg/mL,remaining at […] [22]: > 30%
O=C(Nc1ncco1)NC12CC3CC(CC(C3)C1)C2,948 nM,22 µg/mL,> 200 µg/mL,> 200 µg/mL,> 200 µg/mL,> 200 µg/mL,> 200 µg/mL,> 200 µg/mL,> 200 µg/mL,> 200 µg/mL,> 200 µg/mL,> 200 µg/mL,> 200 µg/mL,> 200 µg/mL,> 200 µg/mL,> 200 µg/mL,6.25 µg/mL,"solubility ([5]; 18 h, pH 7.4): 4.4 µg/mL"
CC(C)(C)c1cc(NC(=O)NC23CC4CC(CC(C4)C2)C3)no1,56 nM,6 µg/mL,> 200 µg/mL,> 200 µg/mL,> 200 µg/mL,> 200 µg/mL,100 µg/mL,–,> 200 µg/mL,> 200 µg/mL,> 200 µg/mL,> 200 µg/mL,200 µg/mL,100 µg/mL,100 µg/mL,> 200 µg/mL,1.56 µg/mL,remaining at […] [22]: > 30%
COC(=O)c1ccc(NC(=O)NC23CC4CC(CC(C4)C2)C3)cc1O,–,–,–,–,–,–,–,–,–,–,–,–,–,–,–,–,–,"solubility ([5]; pH 7.4, 18 h): 0.51 µg/mL; fraction unbound at 4 h, 10 µM [2]: 0.031"
